Assay results published in article PMC3334291 (Biochemistry, 2012).

What was measured:
[1] = biological target: MelBSt (melibiose permease of Salmonella typhimurium) (Salmonella enterica, UniProt P30878, L5M); details: read-out: WT; 20 mM NaCl, 10 μM D2G, 100 mM KPi pH 7.5; sugar site, competitive
[2] = biological target: MelBSt (melibiose permease of Salmonella typhimurium) (Salmonella enterica, UniProt P30878, L5M/G117A); details: read-out: G117A; 20 mM NaCl, 10 μM D2G, 100 mM KPi pH 7.5; sugar site, competitive

OC[C@H]1O[C@H](OC[C@H]2OC(O)[C@H](O)[C@@H](O)[C@@H]2O)[C@H](O)[C@@H](O)[C@H]1O (some centres unmarked) [melibiose]
IC50 [1]: 3.8 mM
IC50 [2]: 8.1 mM
